# Reference: patent publication US20080050759A1, “Screening Assay for Anti-Bacterial Compounds” (Bayer Healthcare AG, priority 2003, published 2008)
# Like-named read-outs stand apart in the source and are kept apart here.
# Key:
# E. faecalis 27263 = experiment: Minimum inhibitory concentration, micro broth dilution; assay type: cell-based
# Method: (§1) MIC determinations were performed using the micro broth dilution method with an inoculum of 5×10^5 cfu/ml in BHI medium. Growth was read after 24 h of incubation at 37° C. Test compounds were dissolved in dimethyl sulfoxide and diluted to a concentration not higher than 2.5% dimethyl sulfoxide. For S. pneumoniae 1707/4 and E. faecalis 27263 16% bovine serum were added and incubated under microaerophilic conditions.
# S. pneumoniae 1707/4 = experiment: as above; assay type: cell-based
# Method: as §1
# S. aureus 133 = experiment: as above; assay type: cell-based; conditions: BHI medium, 24 h, 37° C.
# Method: as §1
# [1] = test system: S30 extracts derived from all three Gram-positives; experiment: In vitro coupled T/T assay, for all three Gram-positive S30 extracts; assay type: biochemical, S. aureus, S. pneumoniae, E. faecalis; conditions: at high concentrations
# Method: To validate the in vitro coupled T/T assay for screening of potential inhibitors of transcription and translation several antibiotics of known mode of action were tested.
# [2] = test system: S30 extracts from S. aureus 133; experiment: Gram-positive in vitro coupled transcription/translation (T/T) assay, S. aureus S30 extract; assay type: biochemical
# Method: A procedure similar to the preparation of S30 extracts described by Murray et. al. (2) was used for S. aureus. Brain heart infusion (BHI) medium (6 l) was inoculated with 250 ml overnight culture of S. aureus 133 grown in BHI at 37° C. with agitation (170 rpm). Cells were cultured at 37° C. until an OD595nm of 2.5 was reached prior to centrifugation at 6000×g for 15 min at 4° C. Pellets were washed once with 500 ml cold S30-buffer A (10 mM Tris-acetate pH 8.0, 14 mM Mg-acetate, 1 mM DTT, 1 M KCl) and once with 250 ml of cold S30-buffer A containing 50 mM KCl. Pellets were frozen for 1 h at −20° C. or overnight at −70° C., thawed on ice and resuspended to a final volume of 99 ml buffer B (10 mM Tris-acetate pH 8.0, 20 mM Mg-acetate, 1 mM DTT, 50 mM KCl). A 1.5 ml aliquote of lysostaphin (0.8 mg/ml) in buffer B was added to each of three centrifuge tubes and 33 ml of the cell suspension were added. Samples were incubated at 37° C. for 1 h with gentle agitation prior to the addition of 150 μl 0.5 M DTT. Lysed cells were centrifuged for 30 min at 30,000×g at 4° C. and the resulting pellet was washed once with 33 ml S30-buffer B. The pooled supernatants were recentrifuged at 30,000×g for 30 min at 4° C. 100 ml of the supernatant were incubated with 25 ml preincubation buffer (670 mM Tris-acetate pH 8.0, 20 mM Mg-acetate, 7 mM Na3-PEP, 7 mM DTT, 5.5 mM ATP, 70 μM amino acids complete [Promega], 75 μg pyruvate kinase [Sigma]/ml) for 30 min at 37° C. to translate mRNAs. The preincubated supernatants were dialysed at 4° C. against 2 l of 10 mM Tris-acetate pH 8.0, 14 mM Mg-acetate, 1 mM DTT, 60 mM KCl with one buffer change using a Spectra-Por dialysis bag with a molecular weight cutoff of 3,500. The dialysate was gently concentrated by covering the dialysis bag with polyethylene glycol 8,000 powder (Sigma) at 4° C. to a protein concentration of ˜10 mg/ml. The resulting S30 extracts were flash frozen and stored in aliquots at −70° C.
# (§2) The final assay volume was 59 μl. Inhibitor (3 μl dissolved in 10% DMSO), plasmid DNA (10 μl of optimal concentration in water pH 8.0) and 46 μl S30 extract [optimal concentration in 23 μl premixed with 23 μl incubation buffer (0.5 M potassium acetate, 87.5 mM Tris/acetate pH 8.0, 67.5 mM ammonium acetate, 50 μg/ml folinic acid, 5 mM DTT, 87.5 mg/ml polyethylene glycol 8000, 5 mM ATP; 1.25 mM of each CTP, GTP and UTP; 0.02 mM amino acids, 50 mM phosphoenolpyruvate trisodium salt, 2.5 mM cyclic AMP, 250 μg of each E. coli tRNA/ml) were added and incubated at 30° C. for 1 h. When using pT7-FF as a template 0.05 μl or 0.1 μl (50 U/μl) T7-RNA-Polymerase (Gibco BRL) were added to the S30 extracts used in the assay. Newly synthesized luciferase was detected by measuring bioluminescence for 60 s in a luininometer after the addition of 50 μl substrate buffer containing luciferine (20 mM Tricine/Cl pH 7.8, 2.67 mM MgSO4, 0.1 mM EDTA, 33.3 mM DTT, 0.27 mM Coenzyme A, 0.47 mM luciferine, 0.53 mM ATP).
# MIC (minimal inhibitory concentration) values were determined as described in Example 4. Numbers in square brackets relate to the unit in square brackets as given in the column heading.
# [3] = test system: S30 extracts from S. pneumoniae 1707/4; experiment: Gram-positive in vitro coupled transcription/translation (T/T) assay, S. pneumoniae S30 extract; assay type: biochemical
# Method: S. pneumoniae 1707/4 was grown overnight at 37° C. on agar plates containing 5% sheep blood under microaerophilic conditions. Cells were collected and inoculated into 4.8 l of BHI medium containing 5% bovine serum prior to cultivation at 37° C. under microaerophilic conditions for 5 h. S30 extracts were prepared as described for S. aureus 133 with some modifications. Cells were harvested and washed by centrifugation at 20,000×g for 15 min. The resulting cell pellet was resuspended in 20 ml buffer B, 3 mg lysozyme were added, incubated for 40 min at 37° C. prior to the addition of 75 μl 0.5 M DTT. The S30 sediment was washed with 8 ml buffer B and 7 ml preincubation buffer were added to the pooled supernatants.
# as §2
# (§3) The shape of the inhibition profiles is more or less similar for these compounds, in case of Streptomycin the lower IC50 value for S. aureus 133 compared to E. faecalis 27263 can be seen. templates pXyl-FF and pT7-FF with S30 extracts of the indicated bacterial strains. […] MIC (minimal inhibitory concentration) values were determined as described in Example 4. Numbers in square brackets relate to the unit in square brackets as given in the column heading.
# [4] = test system: S30 extracts from E. faecalis 27263; experiment: Gram-positive in vitro coupled transcription/translation (T/T) assay, E. faecalis S30 extract; assay type: biochemical
# Method: E. faecalis 26273 was grown overnight in 250 ml BHI medium containing 2% bovine serum at 37° C. under microaerophilic conditions. The overnight culture was used to inoculate 4.8 1 BHI medium, cells were incubated at 37° C. under microaerophilic conditions with agitation (170 rpm) until an OD600 nm of ˜1.6 was reached. Preparation of S30 extracts was done as described for S. aureus with the following exceptions. Cells were harvested and washed at 7000×g at 4° C. for 12 min and resuspended in 100 ml S30-buffer B. For cell lysis 15 mg lysozyme resuspended in 1 ml S30-buffer B were added and incubated for 2 h at 37° C. with agitation. To complete cell lysis extracts were passed once through a French Press at 600 psi.
# as §2, §3
# [5] = Enterococcus faecalis, 27263, BHI medium, 16% bovine serum, microaerophilic, 24 h, 37° C., read-out: MIC
# [6] = Streptococcus pneumoniae, 1707/4, BHI medium, 16% bovine serum, microaerophilic, 24 h, 37° C., read-out: MIC
# [7] = Staphylococcus aureus, 133, read-out: MIC
# [8] = template pT7-FF with T7 RNA polymerase, read-out: IC50
# [9] = template pT7-FF, value in square brackets
# [10] = template pXyl-FF, 50% inhibition of in vitro translation of luciferase, read-out: IC50
# [11] = template pXyl-FF, value in square brackets
# [12] = template pXyl-FF, read-out: IC50
# [13] = BHI medium, 16% bovine serum, microaerophilic, 24 h, 37° C.
Structure (SMILES),MIC (E. faecalis 27263; [5]) [µg/mL],MIC (S. pneumoniae 1707/4; [6]) [µg/mL],MIC (S. aureus 133; [7]) [µg/mL],inhibition in the in vitro coupled T/T assay [1],"IC50 [2, 8] [µM]","IC50 [2, 9] [µg/mL]","IC50 [2, 10] [µM]","IC50 [2, 11] [µg/mL]","IC50 [3, 8] [µM]","IC50 [3, 9] [µg/mL]","IC50 [4, 8] [µM]","IC50 [4, 9] [µg/mL]","IC50 [4, 12] [µM]","IC50 [4, 11] [µg/mL]","MIC (E. faecalis 27263; Enterococcus faecalis, 27263, 24 h) [µg/mL]","MIC (S. pneumoniae 1707/4; Streptococcus pneumoniae, 1707/4, 24 h) [µg/mL]",MIC (E. faecalis 27263; [13]) [µg/mL],MIC (S. pneumoniae 1707/4; [13]) [µg/mL],MIC (S. aureus 133) [µg/mL]
CC1(C)S[C@@H]2[C@H](NC(=O)[C@H](N)c3ccccc3)C(=O)N2[C@H]1C(=O)O [Ampicillin],3.1,0.12,0.4,no or only weak inhibition,> 142,> 50,> 285,> 100,> 285,> 100,> 142,> 50,> 142,> 50,–,–,–,–,–
O=C(N[C@H](CO)[C@H](O)c1ccc([N+](=O)[O-])cc1)C(Cl)Cl [Chloramphenicol],> 16,4,4,–,7.4,2.4,9.3,3.0,11.8,3.8,16.7,5.4,14.9,4.8,–,–,–,–,–
CC[C@H]1OC(=O)[C@H](C)[C@@H](O[C@H]2C[C@@](C)(OC)[C@@H](O)[C@H](C)O2)[C@H](C)[C@@H](O[C@@H]2O[C@H](C)C[C@H](N(C)C)[C@H]2O)[C@](C)(O)C[C@@H](C)C(=O)[C@H](C)[C@@H](O)[C@]1(C)O [Erythromycin],> 100,0.1,0.1,–,0.2,0.15,0.2,0.15,0.05,0.04,0.4,0.3,0.2,0.15,–,–,–,–,–
CC(=O)NC[C@H]1CN(c2ccc(N3CCOCC3)c(F)c2)C(=O)O1 [Linezolid],2,1,2,–,4.1,1.2,4.1,1.2,5.8,1.7,3.4,1.0,3.1,0.9,–,–,–,–,–
COc1c(N2C[C@@H]3CCCN[C@@H]3C2)c(F)cc2c(=O)c(C(=O)O)cn(C3CC3)c12 [Moxifloxacin],–,–,0.06,–,–,–,–,–,–,–,–,–,–,–,0.5,0.25,–,–,–
CO[C@H]1/C=C/O[C@@]2(C)Oc3c(C)c(O)c4c(O)c(c(/C=N/N5CCN(C)CC5)c(O)c4c3C2=O)NC(=O)/C(C)=C\C=C\[C@H](C)[C@H](O)[C@@H](C)[C@@H](O)[C@@H](C)[C@H](OC(C)=O)[C@@H]1C [Rifampicin],3.1,< 0.05,< 0.05,–,–,–,–,–,–,–,–,–,–,–,–,–,–,–,–
[H]/N=C(/N)N[C@H]1[C@H](O)[C@@H](O)[C@H](O[C@@H]2O[C@@H](C)[C@](O)(C=O)[C@H]2O[C@@H]2O[C@@H](CO)[C@H](O)[C@@H](O)[C@@H]2NC)[C@@H](N/C(N)=N\[H])[C@@H]1O [Streptomycin],> 100,> 100,6.25,–,0.02,0.03,0.05,0.07,0.01,0.02,0.41,0.6,0.48,0.7,–,–,–,–,–
CN(C)[C@@H]1C(=O)C(C(N)=O)=C(O)[C@@]2(O)C(=O)C3=C(O)c4c(O)cccc4[C@@](C)(O)[C@H]3C[C@@H]12 [Tetracyclin],–,–,–,–,0.6,0.25,0.9,0.4,0.45,0.2,2.3,1.0,1.8,0.8,–,–,>100,0.2,0.05
